# Assay results reported in paper PMC8401859 (Molecules, 2021).
# Where two headings read alike, the source gives them in different places.
# How the values were obtained:
# GST-CK1δ = GST-CK1δ (Homo sapiens, UniProt P48730); test: radiometric in vitro kinase reaction, GST-CK1δ, phosphate incorporation into α-casein
# Description: (§1) All in vitro kinase reactions were performed at 30 °C in a total volume of 15 µL containing 25 mM Tris-HCl (pH 7.0), 10 mM MgCl2, 100 µM EDTA and 0.4 pmol [γ-^32P]-ATP. […] GST- or 6×His-tagged CK1δ or CK1ε were used as enzymes in 7, 70 or 335 nM concentration. Additionally, a reaction without enzyme was performed and used to determine the background signal specifying the minimal usable enzyme concentration (signal to background ratio ≥10). Reactions were stopped by adding 3 µL of 5× SDS loading buffer and boiling at 95 °C for 5 min. Proteins were separated by SDS-PAGE and stained with Coomassie Brilliant Blue R250 (Waldeck GmbH & Co. KG, Muenster, Germany). Radioactively labelled proteins were visualized by autoradiography. For quantification, phosphorylated proteins were excised from dried gels and phosphate incorporation was measured via Cherenkov counting.
# (§2) Raw data was used to calculate enzyme velocity (V) (phosphate transfer per min). V was plotted over ATP concentration and fitted to the Michaelis-Menten model using GraphPad Prism 7 (GraphPad Software, La Jolla, CA, USA). Km was calculated as the concentration of substrate needed to get half-maximal velocity. In order to determine IC50 values, raw data was transformed from initially measured cpm values to pmol of transferred phosphate. Subsequently data was transformed logarithmically (X = log(X)), normalized to DMSO (100%) and zero (0%) and finally fit to sigmoidal dose-response curves (variable slope) with nonlinear regression using GraphPad Prism 7.
# 6×His-CK1δ = 6×His-CK1δ (Homo sapiens, UniProt P48730); test: radiometric in vitro kinase reaction, 6×His-CK1δ, phosphate incorporation into α-casein
# Description: as §1, §2
# CK1δ of yeast origin = conditions: Working Group B, ATP 100 µM; cited from earlier work
# CK1δ(1–294) = conditions: Working Group A, ATP 20 µM; cited from earlier work
# 6×His-CK1ε [1] = biological target: T1, 6×His-CK1ε (Homo sapiens, UniProt P49674); test: radiometric in vitro kinase reaction, 6×His-CK1ε, phosphate incorporation into α-casein; format: biochemical
# T1 construct: made in house
# Description: as §1
# Raw data was used to calculate enzyme velocity (V) (phosphate transfer per min). V was plotted over ATP concentration and fitted to the Michaelis-Menten model using GraphPad Prism 7 (GraphPad Software, La Jolla, CA, USA). Km was calculated as the concentration of substrate needed to get half-maximal velocity. In order to determine IC50 values, raw data was transformed from initially measured cpm values to pmol of transferred phosphate. […]
# CK1εΔ319 = tested on: CK1εΔ319; set-up: method as in PMID 17502429; conditions: Working Group A, CK1εΔ319, ATP 5 µM; cited from earlier work
# 6×His-CK1ε [2] = tested on: 6×His-CK1ε; set-up: method as in PMID 19458106; conditions: Working Group B, ATP 10 µM; cited from earlier work
# untagged CK1δ = tested on: untagged CK1δ; set-up: method as in PMID 19458106; conditions: CK1-specific peptide substrate, ATP 10 µM, luminescence-based, read-out: IC50 in Literature; cited from earlier work
# CK1δ [3] = conditions: Working Group A, ATP 10 µM; cited from earlier work
# CK1δ [4] = tested on: CK1δ; set-up: method as in PMID 31817920; conditions: ATP 10 µM, read-out: IC50 in Literature; cited from earlier work
# Chain of GST-CK1δ (P48730 whole entry): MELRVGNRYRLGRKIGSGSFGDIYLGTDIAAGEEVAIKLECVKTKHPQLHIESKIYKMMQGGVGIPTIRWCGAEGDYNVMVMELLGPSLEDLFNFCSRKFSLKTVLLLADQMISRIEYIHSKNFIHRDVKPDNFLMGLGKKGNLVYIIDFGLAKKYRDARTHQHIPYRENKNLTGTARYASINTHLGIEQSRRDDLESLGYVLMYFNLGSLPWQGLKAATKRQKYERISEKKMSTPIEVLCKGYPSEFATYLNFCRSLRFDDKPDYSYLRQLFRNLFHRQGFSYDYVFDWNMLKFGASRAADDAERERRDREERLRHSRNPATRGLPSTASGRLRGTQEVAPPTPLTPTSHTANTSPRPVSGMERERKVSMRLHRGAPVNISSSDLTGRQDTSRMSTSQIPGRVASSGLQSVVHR
# Chain of 6×His-CK1δ (P48730 whole entry): as above
# T1 sequence (P49674 whole entry): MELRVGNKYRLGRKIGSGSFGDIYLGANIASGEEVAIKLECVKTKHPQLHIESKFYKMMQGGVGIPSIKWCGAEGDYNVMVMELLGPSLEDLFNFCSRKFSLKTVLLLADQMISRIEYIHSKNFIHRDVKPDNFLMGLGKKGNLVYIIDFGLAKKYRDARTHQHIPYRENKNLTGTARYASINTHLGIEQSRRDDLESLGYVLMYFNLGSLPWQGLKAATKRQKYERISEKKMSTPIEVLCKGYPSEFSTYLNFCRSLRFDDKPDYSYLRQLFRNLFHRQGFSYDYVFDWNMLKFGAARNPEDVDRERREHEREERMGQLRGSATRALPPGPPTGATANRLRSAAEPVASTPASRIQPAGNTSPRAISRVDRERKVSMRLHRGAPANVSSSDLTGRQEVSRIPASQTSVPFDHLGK
structure (smiles),measurement,setting,value
Nc1ncnc2c1ncn2[C@@H]1O[C@H](COP(=O)(O)OP(=O)(O)OP(=O)(O)O)[C@@H](O)[C@H]1O [ATP],Km,"GST-CK1δ; read-out: Km (ATP), GST-CK1δ 7 nM, 10 min, ATP 0.5 to 100 µM, Michaelis-Menten",6 µM
same,Km,"6×His-CK1δ; read-out: Km (ATP), 6×His-CK1δ 70 nM, 10 min, ATP 0.5 to 100 µM, Michaelis-Menten",14 µM
NC(=O)c1ccc(-c2nc(-c3ccc4c(c3)OCCO4)c(-c3ccccn3)[nH]2)cc1 [D4476],IC50,CK1δ of yeast origin,200 nM
same,IC50,CK1δ(1–294),300 nM
Nc1ncnc2c1c(COc1cccc(Cl)c1)nn2C1CCOCC1 [PF-4800567],IC50,6×His-CK1ε [1],72.3 nM
same,Ki,"6×His-CK1ε [1]; 6×His-CK1ε, Kic = IC50/2 (Cheng-Prusoff, ATP = Km)",36.2 nM
Nc1nccc(-c2c(-c3ccc(F)cc3)ncn2C2CCCCC2)n1 [PF-670462],IC50,CK1εΔ319,8 nM
same,IC50,6×His-CK1ε [2],80 nM
same,IC50,untagged CK1δ,13 nM
COc1cc(OC)c(C=C2C(O)=Nc3ccccc32)c(OC)c1 [IC261],IC50,CK1δ [3],1000 nM
same,IC50,CK1δ of yeast origin,2500 nM
O=C(Nc1nc2ccc(C(F)(F)F)cc2s1)Sc1nccc(=O)n1Cc1ccc(OC(F)(F)F)cc1 [Liu-20],IC50,"GST-CK1δ; GST-CK1δ 7 nM, 10 min, ATP equal to Km (ATP) 6 µM, α-casein 10 µM, 30 °C",396 nM
same,Ki,"GST-CK1δ; read-out: Kic, GST-CK1δ, Kic = IC50/2 (Cheng-Prusoff, ATP = Km)",198 nM
same,IC50,CK1δ [4],86 nM
same,IC50,"6×His-CK1δ; 6×His-CK1δ 70 nM, 10 min, ATP equal to Km (ATP) 14 µM, α-casein 10 µM, 30 °C",404 nM
same,Ki,"6×His-CK1δ; read-out: Kic, 6×His-CK1δ, Kic = IC50/2 (Cheng-Prusoff, ATP = Km)",202 nM
